In patent US5567692A, “9-[(substituted glycyl) amido)]-6-demethyl-6-deoxytetracyclines” (priority 1995, dated 1996):
Where a name gives a salt, the structure may show the parent alone. Read-outs that look alike come from different tables or passages of the source.

What was measured:
[1] = test system: S. aureus NEMC 8769; assay: MIC, agar dilution; type: cell-based
[2] = test system: E. coli J3272 Tet C; assay: microbe, parasite or virus in culture; type: cell-based; conditions: Escherichia coli, J3272TETC, 18 h
[3] = test system: Enterococcus 12201; assay: MIC, agar dilution; type: cell-based; conditions: Enterococcus, 12201, 18 h
[4] = test system: E. coli #311 (MP); assay: MIC, agar dilution; type: cell-based; conditions: Escherichia coli, 18 h
[5] = test system: S. aureus IVES 1983; assay: MIC, agar dilution; type: cell-based; conditions: Staphylococcus aureus, IVES1983, 18 h
[6] = test system: E. coli MC 4100 Tet sens.; assay: MIC, agar dilution; type: cell-based; conditions: Escherichia coli, 18 h
[7] = test system: S. aureus ATCC 29213; assay: MIC, agar dilution; type: cell-based; conditions: Staphylococcus aureus, ATCC29213, 18 h, S. aureus ATCC 29213
[8] = test system: E. coli PRP1 Tet A; assay: microbe, parasite or virus in culture; type: cell-based; conditions: Escherichia coli, PRP1TETA, 18 h
[9] = test system: S. aureus UBMS 90-3; assay: MIC, agar dilution; type: cell-based; conditions: Staphylococcus aureus, UBMS903, 18 h
[10] = test system: E. coli J2175; assay: MIC, agar dilution; type: cell-based; conditions: Escherichia coli, 18 h, read-out: MIC
[11] = test system: Staphylococcus aureus strain Smith (tetracycline sensitive); assay: Acute lethal infection in mice, S. aureus Smith; type: in vivo
[12] = test system: S. aureus UBMS 88-4; assay: MIC, agar dilution; type: cell-based; conditions: Staphylococcus aureus, UBMS884, 18 h
[13] = test system: E. coli ATCC 25922; assay: MIC, agar dilution; type: cell-based; conditions: Escherichia coli, ATCC25922, 18 h
[14] = test system: E. coli UBMS 89-2 Tet sens.; assay: MIC, agar dilution; type: cell-based; conditions: Escherichia coli, 18 h
[15] = test system: E. coli UBMS 90-4 Tet M; assay: microbe, parasite or virus in culture; type: cell-based; conditions: Escherichia coli, UBMS904TETM, 18 h
[16] = test system: E. coli UBMS 89-1 Tet M; assay: microbe, parasite or virus in culture; type: cell-based; conditions: Escherichia coli, UBMS891TETM, 18 h
[17] = test system: S. hemolyticus AVHAH 88-3; assay: MIC, agar dilution; type: cell-based; conditions: Streptococcus pyogenes, AVHAH883, 18 h
[18] = test system: E. faecalis ATCC 29212; assay: MIC, agar dilution; type: cell-based; conditions: Enterococcus faecalis, ATCC29212, 18 h
[19] = test system: Ps. aeruginosa ATCC 27853; assay: MIC, agar dilution; type: cell-based; conditions: Pseudomonas aeruginosa, ATCC27853, 18 h
[20] = test system: S. aureus UBMS 90-1 Tet M; assay: microbe, parasite or virus in culture; type: cell-based; conditions: Staphylococcus aureus, UBMS901TETM, 18 h
[21] = test system: S. aureus UBMS 90-2 Tet M; assay: microbe, parasite or virus in culture; type: cell-based; conditions: Staphylococcus aureus, UBMS902TETM, 18 h
[22] = test system: E. coli MC 4100 TNIOC Tet B; assay: microbe, parasite or virus in culture; type: cell-based; conditions: Escherichia coli, 18 h
[23] = test system: E. coli J3272 Tet D; assay: microbe, parasite or virus in culture; type: cell-based; conditions: Escherichia coli, J3272TETD, 18 h
[24] = test system: S. aureus ROSE (MP); assay: MIC, agar dilution; type: cell-based; conditions: Staphylococcus aureus, 18 h
[25] = test system: S. aureus UBMS 88-7 Tet K; assay: microbe, parasite or virus in culture; type: cell-based; conditions: Staphylococcus aureus, UBMS887TETK, 18 h
[26] = test system: E. coli BAJ9003 IMP MUT; assay: microbe, parasite or virus in culture; type: cell-based; conditions: Escherichia coli, BAJ9003IMPMUT, 18 h
[27] = test system: S. aureus UBMS 88-5 Tet M; assay: microbe, parasite or virus in culture; type: cell-based; conditions: Staphylococcus aureus, UBMS885TETM, 18 h
[28] = test system: S. aureus SMITH (MP); assay: MIC, agar dilution; type: cell-based; conditions: Staphylococcus aureus, 18 h
[29] = test system: S. aureus IVES 2943; assay: MIC, agar dilution; type: cell-based; conditions: Staphylococcus aureus, IVES2943, 18 h
[30] = test system: X. maltophilia NEMC 87210; assay: MIC, agar dilution; type: cell-based; conditions: Stenotrophomonas maltophilia, NEMC87210, 18 h
[31] = test system: E. coli UBMS 90-5; assay: microbe, parasite or virus in culture; type: cell-based; conditions: Escherichia coli, UBMS905, 18 h, E. coli UBMS 90-5; read-out: MIC
[32] = test system: S. marcescens FPOR 8733; assay: MIC, agar dilution; type: cell-based; conditions: Serratia marcescens, FPOR8733, 18 h
[33] = test system: E. coli UBMS 88-1 Tet B; assay: microbe, parasite or virus in culture; type: cell-based; conditions: Escherichia coli, UBMS881TETB, 18 h
[34] = Staphylococcus aureus, NEMC8769, 18 h
[35] = Enterococcus 12201, read-out: MIC
[36] = S. aureus SMITH (MP), read-out: MIC

For `CN(C)[C@@H]1C(O)=C(C(N)=O)C(=O)[C@@]2(O)C(O)=C3C(=O)c4c(ccc(NC(=O)CNCC5CC5)c4O)CC3CC12` (stereo partly drawn) [Q, [4S-(4alpha,12aalpha)]-9-[[[(Cyclopropylmethyl)amino]acetyl]amino]-4-(dimethylamino)-1,4,4a,5,5a,6,11,12a-octahydro-3,10,12,12a-tetrahydroxy-1,11-dioxo-2-naphthacenecarboxamide dihydrochloride], the MIC [1, 34] was 0.5 mg/L, the MIC [2] was 0.5 mg/L and the MIC [3] was 0.5 mg/L. For the same compound, the MIC [4] was 1 mg/L, the MIC [5] was 4 mg/L and the MIC [6] was 0.25 mg/L. It also gave an MIC [7] of 0.5 mg/L, an MIC [8] of 2 mg/L and an MIC [9] of 0.5 mg/L. For the same compound, the MIC [10] was 1 mg/L, the ED50 ([11]; Staphylococcus aureus, po, 168 h, mice, S. aureus Smith (Sens), Oral, 7 day survival, read-out: ED50) was over 16 mg/kg and the “in vivo activity (in words)” value ([11]; tested intravenously against the minocycline sensitive organism S. aureus Smith) was “very good in vivo activity”. The MIC [12] was 0.5 mg/L, the MIC [13] was 0.5 mg/L and the MIC [14] was 1 mg/L. For the same compound, the MIC [15] was 0.25 mg/L, the MIC [16] was 0.5 mg/L and the MIC [17] was 4 mg/L. The MIC [18] was 0.25 mg/L, the MIC [19] was 16 mg/L and the MIC [20] was 0.5 mg/L. For the same compound, the MIC [21] was 0.5 mg/L, the MIC [22] was 1 mg/L and the MIC [23] was 0.25 mg/L. It also gave an MIC [24] of 16 mg/L, an MIC [25] of 8 mg/L and an MIC [26] of 0.25 mg/L. For the same compound, the MIC [27] was 0.5 mg/L, the MIC [28] was 0.5 mg/L and the MIC [29] was 8 mg/L. The MIC [30] was 4 mg/L, the MIC [31] was 0.5 mg/L and the MIC ([32]; read-out: MIC) was 8 mg/L. The MIC [33] was 0.5 mg/L.
`CCNCC(=O)Nc1ccc2c(c1O)C(=O)C1=C(O)[C@]3(O)C(=O)C(C(N)=O)=C(O)[C@@H](N(C)C)C3CC1C2` (stereo partly drawn) [E, [4S-(4alpha,12aalpha)]-4-(Dimethylamino)-9-[[(ethylamino)acetyl]amino]-1,4,4a,5,5a,6,11,12a-octahydro-3,10,12,12a-tetrahydroxy-1,11-dioxo-2-naphthacenecarboxamide dihydrochloride] showed an MIC [1, 34] of 0.12 mg/L, an MIC [2] of 1 mg/L and an MIC [3, 35] of 0.25 mg/L. For the same compound, the MIC [4] was 0.5 mg/L, the MIC [5] was 8 mg/L and the MIC [6] was 0.25 mg/L. It also gave an MIC [7] of 0.5 mg/L, an MIC [8] of 2 mg/L and an MIC ([9]; S. aureus UBMS 90-3) of 0.12 mg/L. For the same compound, the MIC [10] was 0.5 mg/L, the MIC [12] was 0.5 mg/L and the MIC ([13]; read-out: MIC) was 0.25 mg/L. The MIC [14] was 0.5 mg/L, the MIC [15] was 0.25 mg/L and the MIC [16] was 0.25 mg/L. The MIC [17] was 1 mg/L, the MIC [18] was 0.25 mg/L and the MIC [19] was 16 mg/L. For the same compound, the MIC [20] was 0.5 mg/L, the MIC ([21]; S. aureus UBMS 90-2 Tet M) was 0.12 mg/L and the MIC [22] was 1 mg/L. It also gave an MIC [23] of 0.25 mg/L, an MIC [24] of over 32 mg/L and an MIC [25] of 8 mg/L. For the same compound, the MIC [26] was 0.12 mg/L, the MIC [27] was 0.5 mg/L and the MIC [28, 36] was 0.25 mg/L. The MIC [29] was 16 mg/L, the MIC [30] was 8 mg/L and the MIC [31] was 0.5 mg/L. For the same compound, the MIC ([32]; read-out: MIC) was 4 mg/L and the MIC [33] was 0.5 mg/L.
`CN(C)[C@@H]1C(O)=C(C(N)=O)C(=O)[C@@]2(O)C(O)=C3C(=O)c4c(ccc(NC(=O)CNCc5ccccn5)c4O)CC3CC12` (stereo partly drawn) [N, [4S-(4alpha,12aalpha)]-4-(Dimethylamino)-1,4,4a,5,5a,6,11,12a-octahydro-3,10,12,12a-tetrahydroxy-1,11-dioxo-9-[[[(2-pyridinylmethyl]amino]acetyl]amino]-2-naphthacenecarboxamide dihydrochloride] was tested, and the MIC [1, 34] was 8 mg/L, the MIC [2] was over 32 mg/L and the MIC [3] was 8 mg/L. For the same compound, the MIC [4] was 32 mg/L, the MIC [5] was over 32 mg/L and the MIC [6] was 8 mg/L. The MIC [7] was 8 mg/L, the MIC [8] was 32 mg/L and the MIC ([9]; S. aureus UBMS 90-3, read-out: MIC) was 4 mg/L. The MIC [10] was over 32 mg/L, the MIC [12] was 8 mg/L and the MIC [13] was 32 mg/L. For the same compound, the MIC [14] was 32 mg/L, the MIC [15] was 16 mg/L and the MIC [16] was 16 mg/L. It also gave an MIC [17] of over 32 mg/L, an MIC ([18]; E. faecalis ATCC 29212, read-out: MIC) of 4 mg/L and an MIC [19] of over 32 mg/L. For the same compound, the MIC [20] was 8 mg/L, the MIC [21] was 8 mg/L and the MIC [22] was 32 mg/L. For the same compound, the MIC [23] was 32 mg/L, the MIC [24] was over 32 mg/L and the MIC [25] was over 32 mg/L. It also gave an MIC [26] of 2 mg/L, an MIC [27] of 8 mg/L and an MIC [28, 36] of 4 mg/L. The MIC [29] was over 32 mg/L, the MIC [30] was over 32 mg/L and the MIC [31] was 32 mg/L. For the same compound, the MIC [32] was over 32 mg/L and the MIC [33] was over 32 mg/L.
`CC1CCN(CC(=O)Nc2ccc3c(c2O)C(=O)C2=C(O)[C@]4(O)C(=O)C(C(N)=O)=C(O)[C@@H](N(C)C)C4CC2C3)CC1` (stereo partly drawn) [A, [7S-(7alpha,10aalpha)]-N-(9-(Aminocarbonyl)-7-(dimethylamino)-5,5a,6,6a,7,10,10a,12-octahydro-1,8,10a,11-tetrahydroxy-10,12-dioxo-2-naphthacenyl]-4-methyl-1-piperidineacetamide dihydrochloride] was tested, and the MIC [1] was “no growth”, the MIC [2] was 1 mg/L and the MIC [3, 35] was 0.5 mg/L. It also gave an MIC [4] of 0.25 mg/L, an MIC [5] of 1 mg/L and an MIC [6] of 0.25 mg/L. The MIC ([7]; read-out: MIC) was 0.5 mg/L, the MIC [8] was 1 mg/L and the MIC [9] was 0.5 mg/L. It also gave an MIC [10] of 0.5 mg/L, an MIC [12] of 0.5 mg/L and an MIC ([13]; read-out: MIC) of 0.25 mg/L. It also gave an MIC [14] of 0.5 mg/L, an MIC [15] of 0.5 mg/L and an MIC [16] of 0.25 mg/L. For the same compound, the MIC [17] was 2 mg/L, the MIC [18] was 0.25 mg/L and the MIC ([19]; Ps. aeruginosa ATCC 27853, read-out: MIC) was over 32 mg/L. The MIC [20] was 1 mg/L, the MIC [21] was 0.5 mg/L and the MIC [22] was 1 mg/L. It also gave an MIC [23] of 0.25 mg/L, an MIC ([24]; read-out: MIC) of 2 mg/L and an MIC [25] of 1 mg/L. The MIC [26] was 0.12 mg/L, the MIC [27] was 0.5 mg/L and the MIC [28, 36] was 0.5 mg/L. The MIC ([29]; S. aureus IVES 2943, read-out: MIC) was 0.5 mg/L, the MIC ([30]; X. maltophilia NEMC 87210, read-out: MIC) was 0.5 mg/L and the MIC [31] was 0.5 mg/L. For the same compound, the MIC [32] was 8 mg/L and the MIC [33] was 1 mg/L.
